Activity and fold change (FC) data for one compound are collected here from ChEMBL document CHEMBL4184254, “Novel SIRT1 activator MHY2233 improves glucose tolerance and reduces hepatic lipid accumulation in db/db mice” (Bioorg Med Chem Lett, 2018).

Active and inactive are the calls of the source. The calls are words filed in the database; no cut-off is given here.

Data set [1] relates to Mus musculus. Nature of the data set: Reduction in hepatic triglyceride level in C57BLKS/J-db/db mouse at 5 mg/kg/day dosed via oral gavage for 4 weeks by colorimetric assay. In kind it is functional, organism-based.
Data set [2] deals with Mus musculus. Nature of the data set: Reduction in hepatic SREBP-1c mRNA expression in C57BLKS/J-db/db mouse at 5 mg/kg/day dosed via oral gavage for 4 weeks by qRT-PCR method. In kind it is functional, organism-based. In general terms: Quantitative PCR measures a nucleic acid by following its amplification.
The target in data set [3] is T1, NAD-dependent protein deacetylase sirtuin-1 (Homo sapiens) (UniProt Q96EB6).
T1 sequence (whole entry): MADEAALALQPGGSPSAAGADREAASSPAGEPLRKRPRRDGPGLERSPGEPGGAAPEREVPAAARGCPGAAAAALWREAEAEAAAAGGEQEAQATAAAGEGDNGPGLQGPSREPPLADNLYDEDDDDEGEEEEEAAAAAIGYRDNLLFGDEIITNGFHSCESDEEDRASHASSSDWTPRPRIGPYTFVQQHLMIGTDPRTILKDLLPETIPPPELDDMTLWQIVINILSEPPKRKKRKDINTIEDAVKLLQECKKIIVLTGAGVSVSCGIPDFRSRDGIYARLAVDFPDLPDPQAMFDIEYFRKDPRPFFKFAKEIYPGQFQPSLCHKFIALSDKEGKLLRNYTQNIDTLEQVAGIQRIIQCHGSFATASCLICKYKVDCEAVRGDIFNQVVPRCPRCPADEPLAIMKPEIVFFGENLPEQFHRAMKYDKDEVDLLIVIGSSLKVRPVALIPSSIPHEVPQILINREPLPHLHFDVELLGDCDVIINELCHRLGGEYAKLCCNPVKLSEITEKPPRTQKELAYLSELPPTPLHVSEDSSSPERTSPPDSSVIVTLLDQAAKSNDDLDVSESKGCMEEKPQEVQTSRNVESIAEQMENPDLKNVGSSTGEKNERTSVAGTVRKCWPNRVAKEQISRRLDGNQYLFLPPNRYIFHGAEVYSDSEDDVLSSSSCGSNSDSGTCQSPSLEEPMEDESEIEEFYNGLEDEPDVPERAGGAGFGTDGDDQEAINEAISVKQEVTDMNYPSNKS
The data set is described as follows: Activation of SIRT1 (unknown origin) assessed as increase in NAD-dependent deacetylase activity using fluoro-substrate peptide by fluorometric assay relative to resveratrol.

The subject of data set [4] is Mus musculus. The data set is described as follows: Activation of SIRT1 in C57BLKS/J-db/db mouse assessed as reduction in p53 acetylation at 5 mg/kg/day dosed via oral gavage for 4 weeks by Western blot method. The class given is functional, organism-based. (In general: Immunoblotting shows a protein as a band on a membrane.)
In data set [5] the test system is Mus musculus. Nature of the data set: Improvement in insulin resistance in C57BLKS/J-db/db mouse assessed as restoration of liver IRS1 Tyr465 phosphorylation at 5 mg/kg/day dosed via oral gavage for 3 weeks during oral glucose tolerance test by Western blot. In kind it is functional, organism-based.
Data set [6] deals with Mus musculus. Nature of the data set: Improvement in insulin resistance in C57BLKS/J-db/db mouse assessed as reduction in fasting serum glucose level at 5 mg/kg/day dosed via oral gavage for 3 weeks by oral glucose tolerance test. The class given is functional, organism-based.
Data set [7] relates to Mus musculus. Nature of the data set: Improvement in insulin resistance in C57BLKS/J-db/db mouse assessed as reduction in serum insulin level at 5 mg/kg/day dosed via oral gavage for 3 weeks by oral glucose tolerance test. The class given is functional, organism-based.
Data set [8] deals with Mus musculus. The data set is described as follows: Reduction in hepatic FASN mRNA expression in C57BLKS/J-db/db mouse at 5 mg/kg/day dosed via oral gavage for 4 weeks by qRT-PCR method. The class given is functional, organism-based.
In data set [9] the test system is Mus musculus. Nature of the data set: Effect on beta-oxidation related gene expression in C57BLKS/J-db/db mouse assessed as ACOX1 mRNA expression at 5 mg/kg/day dosed via oral gavage for 4 weeks by qRT-PCR method. The class given is functional, organism-based.
Data set [10] deals with Mus musculus. Nature of the data set: Reduction in serum total cholesterol level in C57BLKS/J-db/db mouse at 5 mg/kg/day dosed via oral gavage for 30 days by colorimetric assay. In kind it is functional, organism-based.
Data set [11] concerns Mus musculus. The data set is described as follows: Improvement in insulin resistance in C57BLKS/J-db/db mouse assessed as change in glucose level at 5 mg/kg/day dosed via oral gavage for 3 weeks by oral glucose tolerance test. The class given is functional, organism-based.
The subject of data set [12] is Mus musculus. The data set is described as follows: Suppression of hepatic steatosis in C57BLKS/J-db/db mouse assessed as reduction in liver lipid droplets at 5 mg/kg/day dosed via oral gavage for 4 weeks by hematoxylin-eosin staining based assay. In kind it is functional, organism-based.
In data set [13] the test system is Mus musculus. Nature of the data set: Reduction in hepatic SREBP-1a mRNA expression in C57BLKS/J-db/db mouse at 5 mg/kg/day dosed via oral gavage for 4 weeks by qRT-PCR method. In kind it is functional, organism-based.
In data set [14] the test system is Mus musculus. Nature of the data set: Reduction in serum triglyceride level in C57BLKS/J-db/db mouse at 5 mg/kg/day dosed via oral gavage for 30 days by colorimetric assay. In kind it is functional, organism-based.
Data set [15] deals with Mus musculus. Nature of the data set: Reduction in serum NEFA level in C57BLKS/J-db/db mouse at 5 mg/kg/day dosed via oral gavage for 30 days by colorimetric assay. The class given is functional, organism-based.
Data set [16] relates to Mus musculus. The data set is described as follows: Effect on food intake in C57BLKS/J-db/db mouse at 5 mg/kg/day dosed via oral gavage for 30 days. The class given is ADME, organism-based. Particulars: in vivo, 720 h.
The subject of data set [17] is Mus musculus. Nature of the data set: Effect on body weight in C57BLKS/J-db/db mouse at 5 mg/kg/day dosed via oral gavage for 30 days. The settings on record: in vivo, 720 h. The class given is ADME, organism-based.
Data set [18] relates to Mus musculus. The data set is described as follows: Improvement in insulin resistance in C57BLKS/J-db/db mouse assessed as restoration of liver Akt Ser473 phosphorylation at 5 mg/kg/day dosed via oral gavage for 3 weeks during oral glucose tolerance test by Western blot. In kind it is functional, organism-based.
Data set [19] concerns Mus musculus. Nature of the data set: Effect on beta-oxidation related gene expression in C57BLKS/J-db/db mouse assessed as CPT1 mRNA expression at 5 mg/kg/day dosed via oral gavage for 4 weeks by qRT-PCR method. The class given is functional, organism-based.
Data set [20] deals with Mus musculus. Nature of the data set: Reduction in hepatic ACC mRNA expression in C57BLKS/J-db/db mouse at 5 mg/kg/day dosed via oral gavage for 4 weeks by qRT-PCR method. In kind it is functional, organism-based.

On to `O=C(Nc1ccccc1-c1nc2cc(CN3CCN(C4CCCCC4)CC3)ccc2o1)c1ccc2ccccc2c1`, for which the result with Mus musculus [1], in the data set on Mus musculus [2], in the data set on Mus musculus [4], in the data set on Mus musculus [5], with Mus musculus [6] and in the data set with Mus musculus [7] was Active. Further, the result with Mus musculus [8], in the data set on Mus musculus [10], in the data set on Mus musculus [11], in the data set on Mus musculus [12], in the data set with Mus musculus [13] and with Mus musculus [14] was Active. Moreover, the outcome in the data set with Mus musculus [15], in the data set on Mus musculus [18] and with Mus musculus [20] was Active. Further, the fold change (FC) in data set [3] came to 1.5. Also, the result with Mus musculus [9] and in the data set with Mus musculus [19] was inactive. Besides, the Activity result in the data set with Mus musculus [16] and with Mus musculus [17] was “Non-Toxic” in each case.
